{"source": "paper PMC8448864", "about": "“Prolyl isomerase Pin1 plays an essential role in SARS-CoV-2 proliferation, indicating its possibility as a novel therapeutic target” (Scientific Reports, 2021)", "key": {"SARS-CoV-2 [1]": {"tested_on": "SARS-CoV-2", "test": "microbe, parasite or virus in culture", "assay_type": "cell-based", "settings": "for EC50: calculated using virus production at different drug concentrations"}, "recombinant Pin1 protein": {"molecular_target": "recombinant Pin1 protein (Homo sapiens, UniProt Q13526)", "sequence (Q13526 whole entry, species assumed)": "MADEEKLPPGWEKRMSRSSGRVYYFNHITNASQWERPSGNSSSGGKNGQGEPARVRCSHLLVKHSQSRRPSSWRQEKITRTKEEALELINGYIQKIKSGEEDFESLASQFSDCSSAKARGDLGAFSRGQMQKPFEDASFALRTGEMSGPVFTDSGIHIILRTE", "test": "In vitro PPIase assay using recombinant Pin1 protein (method of Janowski et al., Eurofins Selcia)", "assay_type": "biochemical", "settings": "for inhibition at 20 µM: concentration 20 µM; for inhibition at 2 µM: concentration 2 µM"}, "SARS-CoV-2 [2]": {"tested_on": "SARS-CoV-2", "test": "Membrane fusion (CPE, syncytium formation) and fusion index of infected VeroE6/TMPRSS2 cells", "assay_type": "cell-based", "settings": "for Membrane fusion (CPE caused by viral infection): MOI 0.01, 24 h", "description": "Figure 2 Pin1 inhibitor H-77 inhibits SARS-CoV-2 proliferation in a concentration-dependent manner. VeroE6/TMPRSS2 cells were pretreated with the indicated concentrations of H-77 for 2 h, and were subjected to SARS-CoV-2 infection (MOI of 0.01) followed by incubation for 24 h in the presence of the same concentrations of H-77. (A) Western blotting of cell lysates (Duplicate in the figure) with SARS-CoV-2 N, Pin1, and actin antibodies. Full-length blots are presented in Supplementary Fig. 4. (B) vRNA copies contained in 5 µL of the supernatant were quantified by RT-qPCR using authorized SARS-CoV-2 N primers (n = 3). (C) Fusion index calculated by counting numbers of cells and nuclei of infected cells after Giemsa straining. Approximately 100 nuclei and cell number per field were counted for each of five fields. Error bars indicate standard deviation. *P < 0.05, **P < 0.01, Mann–Whitney U test, compared with 0 µM (DMSO). (D) Representative images of SARS-CoV-2-infected VeroE6/TMPRSS2 cells at 24 h post-infection with the indicated concentrations of H-77.\nThe cells were then washed with PBS, fixed with methanol, and stained with Giemsa staining solution. The fusion index was calculated as [1-(number of cells/number of nuclei)] as described previously. Approximately 100 nuclei and cell number per field were counted, and the average fusion index of five fields was calculated."}, "SARS-CoV-2 [3]": {"tested_on": "SARS-CoV-2", "assay_type": "cell-based", "settings": "for SARS-CoV-2 proliferation: MOI 0.01, harvested 24 h after infection"}, "Pin1": {"tested_on": "Pin1", "set-up": "method as in PMID 25849135", "settings": "cited from earlier work"}, "FKBP": {"tested_on": "FKBP", "set-up": "method as in PMID 25849135", "settings": "cited from earlier work"}, "cyclophilin": {"tested_on": "cyclophilin", "set-up": "method as in PMID 25849135", "settings": "cited from earlier work"}, "[4]": {"settings": "Severe acute respiratory syndrome coronavirus 2, VeroE6/TMPRSS2 cells, read-out: EC50 (50% effective concentration, SARS-CoV-2 proliferation)"}, "[5]": {"settings": "Severe acute respiratory syndrome coronavirus 2, VeroE6/TMPRSS2, read-out: EC50 (50% effective concentration, SARS-CoV-2 proliferation), VeroE6/TMPRSS2 cells"}, "[6]": {"settings": "10 µM from 2 h before infection, 24 h after infection"}}, "note": "Where two headings read alike, the source gives them in different places."}
{"molecule": "O=C(O)[C@@H](Cc1ccc2ccccc2c1)OC(=O)n1c2ccccc2c2ccccc21", "note": "[H-175]", "values": [{"measurement": "EC50", "setting": "SARS-CoV-2 [1]; [4]", "result": 12, "unit": "µM"}, {"measurement": "inhibition at 20 µM", "setting": "recombinant Pin1 protein", "result": 89, "unit": "%"}]}
{"molecule": "O=C(O)c1cc(NC(=O)n2c3ccccc3c3ccccc32)cc(NC(=O)n2c3ccccc3c3ccccc32)c1", "note": "[H-596]", "values": [{"measurement": "EC50", "setting": "SARS-CoV-2 [1]; [4]", "result": 5.2, "unit": "µM"}, {"measurement": "inhibition at 1 µM", "setting": "recombinant Pin1 protein; concentration 1 µM", "result": 13, "unit": "%"}, {"measurement": "inhibition at 10 µM", "setting": "recombinant Pin1 protein; concentration 10 µM", "result": 101, "unit": "%"}]}
{"molecule": "O=C(Nc1ccc(OCc2ccccc2)cc1C(=O)O)c1ccc2ccccc2c1", "note": "[H-77]", "values": [{"measurement": "EC50", "setting": "SARS-CoV-2 [1]; [5]", "result": "< 5", "unit": "µM"}, {"measurement": "EC50", "setting": "SARS-CoV-2 [1]; read-out: EC50 (50% effective concentration, SARS-CoV-2 proliferation), VeroE6/TMPRSS2 cells", "result": 3.2, "unit": "µM"}, {"measurement": "inhibition at 2 µM", "setting": "recombinant Pin1 protein", "result": 67, "unit": "%"}, {"measurement": "inhibition at 20 µM", "setting": "recombinant Pin1 protein", "result": 82, "unit": "%"}, {"measurement": "Membrane fusion (CPE caused by viral infection)", "setting": "SARS-CoV-2 [2]; concentrations above 7.5 μM", "result": "almost absent"}, {"measurement": "Membrane fusion (CPE caused by viral infection)", "setting": "SARS-CoV-2 [2]; drug concentration increased to 5 μM", "result": "less apparent"}, {"measurement": "SARS-CoV-2 proliferation", "setting": "SARS-CoV-2 [3]; 10 µM added 2 h after infection", "result": "almost completely blocked"}, {"measurement": "SARS-CoV-2 proliferation", "setting": "SARS-CoV-2 [3]; 10 µM added 6 h after infection", "result": "weaker but still significant inhibitory effect"}, {"measurement": "Amount of genomic RNA released from the cells (vRNA in supernatant)", "setting": "SARS-CoV-2 [3]; [6]", "result": "significantly reduced"}, {"measurement": "Intracellular viral N mRNA", "setting": "SARS-CoV-2 [3]; [6]", "result": "significantly reduced"}]}
{"molecule": "O=C1C=CC(=O)c2c(O)cccc21", "note": "[Juglone]", "values": [{"measurement": "Cell survival", "setting": "VeroE6/TMPRSS2 cells", "result": "unable to survive"}]}
{"molecule": "O=C(Nc1ccc(OCc2ccc3ccccc3c2)cc1C(=O)O)c1ccc2ccccc2c1", "note": "[H-371]", "values": [{"measurement": "EC50", "setting": "SARS-CoV-2 [1]; [4]", "result": 4.2, "unit": "µM"}, {"measurement": "inhibition at 2 µM", "setting": "recombinant Pin1 protein", "result": 80, "unit": "%"}]}
{"molecule": "CC1=C(/C=C/C(C)=C/C=C/C(C)=C/C(=O)O)C(C)(C)CCC1", "note": "[ATRA, all-trans retinoic acid, reference compound]", "values": [{"measurement": "EC50", "setting": "SARS-CoV-2 [1]; [5]", "result": 17.9, "unit": "µM"}, {"measurement": "SARS-CoV-2 protein and viral RNA levels", "setting": "SARS-CoV-2 [1]; concentration-dependent, pretreated 2 h, MOI 0.01, 24 h", "result": "marked reductions"}, {"measurement": "CPE of SARS-CoV-2", "setting": "SARS-CoV-2 [2]; VeroE6/TMPRSS2 cells", "result": "alleviated"}, {"measurement": "Activity of Pin1", "setting": "Pin1", "result": "inhibits"}, {"measurement": "Activity of FKBP", "setting": "FKBP", "result": "does not affect"}, {"measurement": "Activity of cyclophilin", "setting": "cyclophilin", "result": "does not affect"}]}
{"molecule": "O=C(Nc1ccc(OCc2ccccc2)cc1C(=O)O)c1cccc(Oc2ccccc2)c1", "note": "[H-363]", "values": [{"measurement": "EC50", "setting": "SARS-CoV-2 [1]; [4]", "result": 6.3, "unit": "µM"}, {"measurement": "inhibition at 20 µM", "setting": "recombinant Pin1 protein", "result": 82, "unit": "%"}]}
